The values that follow come from ChEMBL document CHEMBL1137804, “Natural product-based anti-HIV drug discovery and development facilitated by the NCI developmental therapeutics program” (J Nat Prod, 2001).

≈ marks a conversion by molar mass, not a printed value.

The subject of data set [1] is Human immunodeficiency virus 1. Put plainly: Antiviral activity against HIV1 in human CEM-SS cells assessed as inhibition of virus-induced cytopathic effect. The data set is classed as functional, organism-based. To be noted: Human immunodeficiency virus 1, CEM-SS. On the technique in general: Protection from cytopathic effect is a common read-out in antiviral testing.

Data set [2] deals with Human immunodeficiency virus 1. Put plainly: Antiviral activity against HIV1 LAI in human MT2 cells assessed as virus-induced cytopathic effect after 72 hrs. The data set is classed as functional. To be noted: Human immunodeficiency virus 1, LAI, MT2, 72 h; read-out: ED50 (the source's name).
Data set [3] in a line: Therapeutic index, ratio of cytotoxicity against human MT2 cells to EC50 for HIV1 LAI. Type of data set: cell-based. To be noted: read-out: TI.
Data set [4] has as its target Human immunodeficiency virus type 1 integrase (Human immunodeficiency virus 1, UniProt Q7ZJM1). Put plainly: Inhibition of HIV1 integrase-catalyzed disintegration activity.
The test system of data set [5] is Human immunodeficiency virus 1. Description: Antiviral activity against HIV1 RF in human MT2 cells assessed as virus-induced cytopathic effect after 72 hrs. Type of data set: functional. To be noted: Human immunodeficiency virus 1, RF, MT2, 72 h; read-out: ED50 (the source's name).
A short description of data set [6]: Therapeutic index, ratio of cytotoxicity against human MT2 cells to EC50 for HIV1 RF. To be noted: read-out: TI. Type of data set: cell-based.
Data set [7] relates to Human immunodeficiency virus 1. Put plainly: Antiviral activity against HIV1 RF in human CEM-SS cells assessed as inhibition of virus-induced cytopathic effect. The data set is classed as functional, organism-based. To be noted: Human immunodeficiency virus 1, RF.
A short description of data set [8]: Therapeutic index, ratio of cytotoxicity against human CEM-SS cells to EC50 for HIV1 RF. The data set is classed as cell-based. The settings on record: read-out: TI.
Data set [9] in a line: Therapeutic index, ratio of cytotoxicity against human H9 cells to EC50 for HIV1 3B. The data set is classed as cell-based. To be noted: read-out: TI.
Data set [10] in a line: Therapeutic index, ratio of cytotoxicity against human H9 cells to EC50 for HIV1 RF. Type of data set: cell-based. The settings on record: read-out: TI.
The subject of data set [11] is Human immunodeficiency virus 1. Description: Antiviral activity against HIV1 3B in human H9 cells assessed as inhibition of virus-induced cytopathic effect by formazan-based conventional colorimetric technique. To be noted: Human immunodeficiency virus 1, 3B. Type of data set: functional, organism-based.
Data set [12] concerns Human immunodeficiency virus 1. Description: Antiviral activity against HIV1 RF in human H9 cells assessed as inhibition of virus-induced cytopathic effect by formazan-based conventional colorimetric technique. The data set is classed as functional, organism-based. To be noted: Human immunodeficiency virus 1, RF.
Data set [13] concerns Human immunodeficiency virus 2. Put plainly: Antiviral activity against HIV2. The data set is classed as functional, organism-based.
The next data set relates to H9. Put plainly: Cytotoxicity against human H9 cells. Type of data set: cell-based.
The target in data set [14] is Human immunodeficiency virus type 1 reverse transcriptase (Human immunodeficiency virus 1, UniProt Q72547). Put plainly: Inhibition of HIV1 reverse transcriptase.
In data set [15] the test system is Human immunodeficiency virus 1. Description: Antiviral activity against azidothymidine-resistant HIV1 G9106. To be noted: Human immunodeficiency virus 1, G9106. The data set is classed as functional, organism-based.
In data set [16] the test system is Human immunodeficiency virus 1. Put plainly: Antiviral activity against pyridinone-resistant HIV1 A17. The data set is classed as functional, organism-based. To be noted: Human immunodeficiency virus 1, A17.
The subject of data set [17] is Human immunodeficiency virus 1. Description: Antiviral activity against HIV1 RF in human CEM cells. Type of data set: functional, organism-based. The settings on record: Human immunodeficiency virus 1, RF, CCRF-CEM.
Data set [18] deals with Human immunodeficiency virus 1. Put plainly: Antiviral activity against HIV1 Rojo in human CEM cells. The data set is classed as functional, organism-based. The settings on record: Human immunodeficiency virus 1, Rojo, CCRF-CEM.

Sequence of Human immunodeficiency virus type 1 integrase (Q7ZJM1 whole entry): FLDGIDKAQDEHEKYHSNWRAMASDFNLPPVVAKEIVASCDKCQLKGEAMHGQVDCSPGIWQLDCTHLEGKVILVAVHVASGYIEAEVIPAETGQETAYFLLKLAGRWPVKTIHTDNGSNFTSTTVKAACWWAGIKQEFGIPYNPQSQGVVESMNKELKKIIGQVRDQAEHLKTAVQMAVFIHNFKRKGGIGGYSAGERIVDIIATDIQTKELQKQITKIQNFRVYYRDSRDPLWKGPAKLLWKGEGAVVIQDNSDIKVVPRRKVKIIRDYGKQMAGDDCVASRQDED

For `CC(=O)O[C@@]12C[C@@H](C)[C@@]3(O)[C@@H](C=C(CO)C[C@]4(O)C(=O)C(C)=C[C@@H]34)[C@@H]1C2(C)C` [PROSTRATIN], the EC50 in [1] was ≤ 132 nM.
In general, IC50 refers to the midpoint of a concentration-inhibition curve. Low values mean greater potency in that assay, high ones weaker potency in that assay. Consider `COC(=O)C(=O)O[C@]1(C(=O)O)C[C@@H](OC(=O)/C=C/c2ccc(O)c(O)c2)[C@H](O)[C@H](OC(=O)/C=C/c2ccc(O)c(O)c2)C1`, for which, in data set [2], the EC50 worked out at 4 µg/mL (≈ 6.64 µM). For the same molecule, in [3], the selectivity ratio amounted to 87. This molecule also had an IC50 in [4] of 946 nM.
As for `Cc1cc(O)c(C=O)c2c1C(=O)Oc1c(COC(=O)/C=C/C(=O)O)c(O)c(C(=O)O)c(C)c1O2` [FUMARPROTOCETRARIC ACID], in [5], the EC50 is 8400 nM. In addition, the selectivity ratio in [6] is > 4.61.
Turning to `CCCc1cc(=O)oc2c3c(c4c(c12)OC(C)(C)C=C4)O[C@@H](C)[C@H](C)[C@@H]3O` [COSTATOLIDE], in [7], the EC50 came out at 200 nM. In data set [8], the selectivity ratio was > 20.
Regarding `O=c1[nH]cnc2c1ncn2[C@H]1CC[C@@H](CO)O1` [DIDANOSINE], the selectivity ratio in data set [9] and in data set [10] was 1760 throughout.
Regarding `COc1cc2c[n+](C)c3c4cc5c(cc4ccc3c2cc1OC)OCO5` [NITIDINE CHLORIDE], the EC50 in [7] stood at 14000 nM. Further, the selectivity ratio in data set [8] came to 3.
Regarding `Cc1cn([C@H]2C=C[C@@H](CO)O2)c(=O)[nH]c1=O` [STAVUDINE], the EC50 in data set [11] and in data set [12] was 60 nM in each case.
With `COc1cc(C)cc2c(-c3c(O)cc(O)c4c3C[C@@H](C)N[C@@H]4C)cc(-c3cc(-c4c(O)cc(O)c5c4C[C@@H](C)N[C@@H]5C)c4cc(C)cc(OC)c4c3O)c(O)c12` [MICHELLAMINE A], the EC50 in [1] is 1000 nM.
On to `CC(C)=CCOc1c(CC=C(C)C)c(O)nc2ccccc12`, for which the EC50 in data set [7] stood at 1640 nM. Besides, the selectivity ratio in data set [8] was 17.
Turning to `CCCc1cc(=O)oc2c3c(c4c(c12)OC(C)(C)CC4)O[C@@H](C)[C@H](C)[C@@H]3O` [7,8-DIHYDROCALANOLIDE B], the EC50 in data set [7] was 100 nM. In addition, the selectivity ratio in [8] is 99.8.
The molecule `CSC[C@H](NC(=O)COc1cccc2cnccc12)C(=O)N[C@@H](Cc1ccccc1)[C@H](O)C(=O)N1CSC(C)(C)[C@H]1C(=O)NC(C)(C)C` returned an EC50 in data set [13] of 20 nM.
Regarding `CO[C@@H]1C[C@@H](C[C@H]2CC[C@H](C)[C@H]([C@@H](C)C(=O)O)O2)O[C@]2(O[C@](C)([C@H]3CC[C@@](C)([C@@H]4O[C@@H]([C@H]5O[C@@](O)(CO)[C@H](C)C[C@@H]5C)C[C@@H]4C)O3)C[C@H]2C)[C@@H]1C` [NIGERICIN], the EC50 in data set [12] came to 6 nM. The molecule also displayed an IC50 in the data set with H9 of 140 nM.
As to `C=CC(C)(CC/C=C(\C)CCC=C(C)C)c1cc(O)c(O)c(-c2cc(C(C)(C=C)CC/C=C(\C)CCC=C(C)C)cc(O)c2O)c1` (centres undefined) [PELTATOL A], the EC50 in data set [1] is 8000 nM.
Regarding `C=CC(C)(C)C1(CC=C(C)C)C(=O)Nc2ccccc2C1=O` (centres undefined) [BUCHAPINE], the EC50 in data set [7] stood at 940 nM. The selectivity ratio in data set [8] came to 31. Inhibition in data set [14] was half-maximal at 10000 nM (IC50).
In the case of `CCCc1cc(=O)oc2c3c(c4c(c12)OC(C)(C)C=C4)O[C@H](C)[C@@H](C)[C@@H]3O` [CALANOLIDE A], the EC50 in [7] was 200 nM; in data set [15], ≤ 30 nM; in data set [16], ≤ 600 nM. The selectivity ratio in data set [8] turned out to be 103.
On to `CN1CCCCC1c1c(O)cc(O)c2c(=O)cc(-c3ccccc3)oc12` (centres undefined), for which the EC50 in data set [7] was found to be 260 nM. The selectivity ratio in data set [8] was 3.
With `C=C1C(=O)[C@]23C[C@H]1CC[C@H]2[C@]1(C)CCC[C@@](C)(C(=O)O)[C@H]1C[C@@H]3OC(C)=O` [XYLOPINIC ACID], in [1], the EC50 was ≤ 900 nM.
On to `CSC[C@H](NC(=O)COc1cccc2cnccc12)C(=O)N[C@@H](Cc1ccccc1)[C@H](O)C(=O)N1CSC[C@H]1C(=O)NC(C)(C)C`, for which the EC50 in data set [12] came to 20 nM. In addition, in [10], the selectivity ratio is > 4.6.
On to `Nc1ccn([C@H]2CC[C@@H](CO)O2)c(=O)n1` [ZALCITABINE], for which the EC50 in data set [11] and in [12] was 1 nM throughout. The selectivity ratio in data set [9] and in data set [10] was 200 in each case.
For the molecule `CC(C)CC(=O)N[C@H](C(=O)N[C@H](C(=O)N[C@@H](CC(C)C)[C@@H](O)CC(=O)N[C@@H](C)C(=O)N[C@@H](CC(C)C)[C@@H](O)CC(=O)O)C(C)C)C(C)C` [PEPSTATIN], the figures for the EC50 in data set [12], in data set [17] and in data set [18] were 51800 nM, 69000 nM and 150000 nM, respectively.
In the case of `Nc1ccn([C@@H]2CS[C@H](CO)O2)c(=O)n1` [LAMIVUDINE], the EC50 in [11] and in data set [12] was 60 nM in each case.
With `O=C(O[C@@H]1C[C@](OC(=O)c2cc(O)c(O)c(O)c2)(C(=O)O)C[C@@H](OC(=O)c2cc(O)c(O)c(O)c2)[C@H]1OC(=O)c1cc(O)c(O)c(O)c1)c1cc(O)c(O)c(O)c1`, the EC50 in data set [7] came to 500 nM. For the same molecule, the selectivity ratio in data set [8] is 20. The molecule further yielded an IC50 in data set [14] of 800 nM.
As to `Cc1cn([C@H]2C[C@H](N=[N+]=[N-])[C@@H](CO)O2)c(=O)[nH]c1=O` [ZIDOVUDINE], the EC50 in data set [11] and in [12] was 1 nM each time. In addition, the selectivity ratio in data set [9] and in data set [10] was > 1000 each time.
Turning to `CC(C)=CCC[C@]1(C)C=Cc2c(ccc3c2C(=O)C(O)=C(C2=C(C4=C(O)C(=O)c5c(ccc6c5C=C[C@@](C)(CCC=C(C)C)O6)C4=O)C(=O)c4c(ccc5c4C=C[C@@](C)(CCC=C(C)C)O5)C2=O)C3=O)O1` [CONOCURVONE], the EC50 in data set [1] came out at 20 nM.
For the molecule `Nc1ncnc2c1ncn2[C@@H]1O[C@H](CO)C[C@@H]1F` [LODENOSINE], the EC50 in [11] and in data set [12] was 1160 nM in each case. Also, the selectivity ratio in data set [9] and in data set [10] was > 17 in each case.
On to `O=C(/C=C/c1ccc(O)c(O)c1)O[C@@H]1C[C@](O)(C(=O)O)C[C@@H](OC(=O)/C=C/c2ccc(O)c(O)c2)[C@H]1O`, for which, in data set [2], the EC50 is 1 µg/mL (≈ 1.94 µM). In addition, the selectivity ratio in [3] stood at 150. In data set [4], this molecule gave an IC50 of 1280 nM.
